Results from patent publication US9597407B2, “Targeted antimicrobial moieties” (C3 Jian, Inc., priority 2009, dated 2017).
Bridge positions count the residues as written; N and C are the ends. Square brackets hold non-standard residues; d marks the D form. Ends that are not written are not given here. Peptide text beside a SMILES is read from it. I, II: the chains in the order shown. Aoc = NCCCCCCCC(=O)O

Columns and labels:
[1] = tested on: P. aeruginosa; assay: Microbial population shift assay, mixed planktonic culture; format: cell-based, Pseudomonas aeruginosa; settings: 10 μM peptide, 24 h, detection limit 200 cfu/mL
Description: (§1) Peptide (10 μM) or mock-treatment (1×PBS) was then added and samples were incubated at 37° C. for 24 h under anaerobic conditions (80% N2, 15% CO2, 5% H2). […] Plates were then incubated 37° C. under aerobic conditions (TH plates were incubated anaerobically) and colonies counted after 24 h to determine survivors. […] Gram stains and direct microscopic observation (from select isolated colonies) were undertaken to confirm species identity (data not shown). The detection limit of the assay was 200 cfu/mL.
(§2) We hypothesized that potential MH-STAMP dual-functionality could affect a particular set of bacteria within a mixed population, thereby promoting the outgrowth of non-targeted organisms and “shifting” the constituent makeup. To examine this possibility, defined mixed populations of planktonic cells were treated continuously and the make-up of the community examined after 24 h.

[2] = tested on: S. mutans; assay: Post-antibiotic effect assay, monoculture growth after 10 min treatment; format: cell-based, Streptococcus mutans; settings: peptide 10 min, then fresh medium
Description: (§3) The activity and selectivity of MH-STAMPs after a 10 min incubation was determined by growth retardation experiments against targeted and untargeted bacteria in monocultures, as described previously (Id.). Cells from overnight cultures were diluted to ˜5×10^6 cfu/mL in MH (or TH with 1% sucrose for S. mutans), normalized by OD600 0.05-0.1 and seeded to 96-well plates. Cultures were then grown under the appropriate conditions for 2 h (3 h for S. mutans) prior to the addition of peptides for 10 min. Plates were then centrifuged at 3000×g for 5 min, the supernatants discarded, fresh medium returned (MH or TH without sucrose for S. mutans), and incubation resumed. Bacterial growth after treatment was then monitored over time by OD600.
(§4) MH-STAMP antimicrobial kinetics was ascertained utilizing a variation of the classical post-antibiotic effect assay, which measures the ability of an agent to affect an organism's growth after a short exposure period. Monocultures of MH-STAMP-targeted and untargeted organisms were exposed to M8(KH)-20, M8(BL)-20, BL(KH)-20, or unmodified BD2.20, then allowed to recover. […] Furthermore, replacement of the targeting region with a non-binding peptide abolishes specific activity.

[3] = tested on: S. mutans; assay: Microbial population shift assay, mixed planktonic culture; format: cell-based, Streptococcus mutans; settings: 10 μM peptide, 24 h, detection limit 200 cfu/mL
Description: as §1, §2

[4] = tested on: E. coli; assay: as above; format: cell-based, Escherichia coli; settings: 10 μM peptide, 24 h, detection limit 200 cfu/mL
Description: as §1, §2

[5] = tested on: S. epidermidis; assay: as above; format: cell-based, Staphylococcus epidermidis; settings: 10 μM peptide, 24 h, detection limit 200 cfu/mL
Description: as §1, §2

[6] = tested on: P. aeruginosa; assay: Post-antibiotic effect assay, monoculture growth after 10 min treatment; format: cell-based, Pseudomonas aeruginosa; settings: peptide 10 min, then fresh medium
Description: as §3, §4

[7] = tested on: E. coli; assay: as above; format: cell-based, Escherichia coli; settings: peptide 10 min, then fresh medium
Description: as §3, §4

[8] = tested on: S. aureus; assay: as above; format: cell-based, Staphylococcus aureus; settings: peptide 10 min, then fresh medium
Description: as §3, §4

[9] = tested on: S. epidermidis; assay: as above; format: cell-based, Staphylococcus epidermidis; settings: peptide 10 min, then fresh medium
Description: as §3, §4

[10] = tested on: S. mutans; assay: STAMP activity in formulations (buffer/salt dependence); format: cell-based, Streptococcus mutans
Description: During the course of evaluating STAMPs, antimicrobial peptides (AMPs), and binding peptides for desired activity, it was discovered that certain formulations can attenuate or promote peptide activity, as compared to activity levels in a default buffer system (1×PBS). In some cases, 1×PBS may provide the best level of activity. Below are a number of formulations that alter, or may alter, peptide or STAMP activity. For complex buffer systems, assume the base solvent is water unless otherwise stated.
It was a surprising discovery that certain anti-S. mutans STAMPs required a salt in the formulation (e.g., PBS) for optimum activity. […] Suitable PBS formulations ranged from 0.5×PBS to about 2.5×PBS with an activity optimum at about 1×PBS. Similar results are believed to obtain for other anti-S. mutans STAMPS as well as a number of other STAMPs. In certain embodiments STAMP stability in solution was improved by inclusion of fluoride in mouthrinse.

Compound | surviving P. aeruginosa cfu/mL [1] | S. mutans growth (OD600) after treatment [2] | surviving S. mutans cfu/mL [3] | surviving E. coli cfu/mL [4] | surviving S. epidermidis cfu/mL [5] | P. aeruginosa growth (OD600) after treatment [6] | E. coli growth (OD600) after treatment [7] | S. aureus growth (OD600) after treatment [8] | S. epidermidis growth (OD600) after treatment [9] | activity optimum (PBS strength) ([10]; PBS formulations 0.5×PBS to about 2.5×PBS) | activity ([10]; water-based salt-free buffers and nanoemulsions)
CC[C@H](C)[C@H](NC(=O)[C@H](Cc1ccccc1)NC(=O)CCCCCCCNC(=O)[C@H](CCCCNC(=O)CNC(=O)CNC(=O)CNC(=O)[C@H](Cc1c[nH]cn1)NC(=O)[C@H](CCCCN)NC(=O)[C@H](CCCNC(=N)N)NC(=O)[C@H](Cc1c[nH]cn1)NC(=O)[C@H](CCCCN)NC(=O)[C@H](CCCNC(=N)N)NC(=O)[C@H](Cc1c[nH]cn1)NC(=O)[C@H](CCCCN)NC(=O)[C@H](CCCNC(=N)N)NC(=O)[C@H](Cc1c[nH]cn1)NC(=O)[C@H](CCCCN)NC(=O)[C@@H](N)CCCCN)NC(=O)CNC(=O)CNC(=O)CNC(=O)[C@H](C)NC(=O)[C@H](CCC(=O)O)NC(=O)[C@H](CC(N)=O)NC(=O)[C@H](C)NC(=O)[C@H](C)NC(=O)[C@H](CC(=O)O)NC(C)=O)C(=O)N[C@@H](CCCNC(=N)N)C(=O)N[C@@H](CCCCN)C(=O)N[C@@H](Cc1ccccc1)C(=O)N[C@@H](CC(C)C)C(=O)N[C@@H](CCCCN)C(=O)N[C@@H](CCCCN)C(=O)N[C@@H](Cc1c[nH]c2ccccc12)C(=O)N[C@@H](CC(C)C)C(=O)N[C@@H](CC(C)C)C(N)=O [BL(KH)-20] (I: Ac-DAANEAGGGK[Aoc]FIRKFLKKWLL-NH2 / II: H-KKHRKHRKHRKHGGG; amide I:10-II:C) | not observed | not altered | higher than input cfu/mL | unchanged numbers | unchanged numbers |  |  |  |  |  | 
CC[C@H](C)[C@H](NC(=O)[C@@H](N)Cc1ccccc1)C(=O)N[C@@H](CCCNC(=N)N)C(=O)N[C@@H](CCCCN)C(=O)N[C@@H](Cc1ccccc1)C(=O)N[C@@H](CC(C)C)C(=O)N[C@@H](CCCCN)C(=O)N[C@@H](CCCCN)C(=O)N[C@@H](Cc1c[nH]c2ccccc12)C(=O)N[C@@H](CC(C)C)C(=O)N[C@@H](CC(C)C)C(N)=O [BD2.20] (H-FIRKFLKKWLL-NH2; N-terminus assumed) | significant loss of recoverable cfu/mL | robust antimicrobial activity | significant loss of recoverable cfu/mL | significant loss of recoverable cfu/mL | significant loss of recoverable cfu/mL | robust antimicrobial activity | inhibited | inhibited | inhibited |  | 
TFFRLFNRSFTQALGKGGGKNLRIIRKGIHIIKKY* (TFFRLFNRSFTQALGKGGGKNLRIIRKGIHIIKKY-NH2) [Peptide C16G2, anti-S. mutans STAMP] |  |  |  |  |  |  |  |  |  | about 1 ×PBS | substantially inactive
